# Results from patent publication US7632811B2, “Analogs of parathyroid hormone” (Societe de Conseils de Recherches et D'Applications …, priority 1995, dated 2009).
# Non-standard residues stand in square brackets, D forms with d. Residues, ends and D or L forms follow the SMILES beside them. Cha = N[C@@H](CC1CCCCC1)C(=O)O; Ac6c = NC1(C(=O)O)CCCCC1; Aib = CC(C)(N)C(=O)O
# Target: T1, PTH receptor present on SaOS-2 (human osteosarcoma cells) (Homo sapiens, UniProt Q03431)
# T1 construct: host or cells: SaOS-2 human osteosarcoma cells (intact, confluent monolayers)
# T1 sequence (Q03431 27-593): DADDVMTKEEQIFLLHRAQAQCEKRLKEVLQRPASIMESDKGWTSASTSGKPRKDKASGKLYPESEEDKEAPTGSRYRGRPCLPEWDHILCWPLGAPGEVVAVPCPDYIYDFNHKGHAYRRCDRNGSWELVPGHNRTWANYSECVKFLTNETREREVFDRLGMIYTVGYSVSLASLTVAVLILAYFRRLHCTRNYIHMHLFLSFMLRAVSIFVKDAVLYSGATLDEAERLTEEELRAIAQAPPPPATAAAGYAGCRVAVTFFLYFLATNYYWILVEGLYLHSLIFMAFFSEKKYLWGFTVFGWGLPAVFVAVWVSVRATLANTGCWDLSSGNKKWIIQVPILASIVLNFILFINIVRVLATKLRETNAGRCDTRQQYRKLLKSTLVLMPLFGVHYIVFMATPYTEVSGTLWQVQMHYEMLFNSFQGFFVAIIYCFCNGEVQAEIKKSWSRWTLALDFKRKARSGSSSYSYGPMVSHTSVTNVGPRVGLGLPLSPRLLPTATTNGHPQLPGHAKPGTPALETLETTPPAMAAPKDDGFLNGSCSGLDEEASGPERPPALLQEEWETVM
# Assay: Binding to PTH receptor on SaOS-2 cells (competition with mono-125I-[Nle8,18,Tyr34(3-125I)]bPTH(1-34)NH2)
# Settings: Table I, 2 hrs at room temperature, read-out: Kd (half maximal inhibition of binding of mono-125I-[Nle8,18, Tyr34(3-125I)]bPTH(1-34)NH2)
# Description: A. Binding to PTH Receptor
# The peptides of the invention were tested for their ability to bind to the PTH receptor present on SaOS-2 (human osteosarcoma cells). SaOS-2 cells (American Type Culture Collection, Rockville, Md.; ATCC #HTB 85) were maintained in RPMI 1640 medium (Sigma, St. Louis, Mo.) supplemented with 10% fetal bovine serum (FBS) and 2 mM glutamine at 37EC in a humidified atmosphere of 5% CO2 in air. The medium was changed every three or four days, and the cells were subcultured every week by trypsinization.
# SaOS-2 cells were maintained for four days until they had reached confluence. The medium was replaced with 5% FBS in RPMI 1640 medium and incubated for 2 hrs at room temperature with 10×10^4 cpm mono-^125I-[Nle^8,18, Tyr^34(3-^125I)]bPTH(1-34)NH2 in the presence of a competing peptides of the invention at various concentrations between 10^−11 M to 10^−4 M. The cells were washed four times with ice-cold PBS and lysed with 0.1 M NaOH, and the radioactivity associated with the cells was counted in a scintillation counter. Synthesis of mono-^125I-[Nle^8,18, Tyr^34(3-^125I)]bPTH(1-34)NH2 was carried out as described in Goldman, M. E., et al., Endocrinol., 123:1468 (1988).
# The binding assay was conducted with various peptides of the invention, and the Kd value (half maximal inhibition of binding of mono-^125I-[Nle^8,18, Tyr^34(3-^125I)]bPTH(1-34)NH2) for each peptide was calculated.
row,Structure (SMILES),Kd [nM]
1,"CC[C@H](C)[C@H](NC(=O)[C@H](CCC(=O)O)NC(=O)[C@H](CO)NC(=O)[C@@H](NC(=O)[C@@H](N)CO)C(C)C)C(=O)N[C@@H](CCC(N)=O)C(=O)N[C@@H](CC(C)C)C(=O)N[C@@H](CCSC)C(=O)N[C@@H](Cc1c[nH]cn1)C(=O)N[C@@H](CC(N)=O)C(=O)N[C@@H](CC(C)C)C(=O)NCC(=O)N[C@@H](CCCCN)C(=O)N[C@@H](Cc1c[nH]cn1)C(=O)N[C@@H](CC(C)C)C(=O)N[C@@H](CC(N)=O)C(=O)N[C@@H](CO)C(=O)N[C@@H](CCSC)C(=O)N[C@@H](CCC(=O)O)C(=O)N[C@@H](CCCNC(=N)N)C(=O)N[C@H](C(=O)N[C@@H](CCC(=O)O)C(=O)N[C@@H](Cc1c[nH]c2ccccc12)C(=O)N[C@@H](CC1CCCCC1)C(=O)N[C@@H](CCCNC(=N)N)C(=O)N[C@@H](CCCCN)C(=O)N[C@@H](CCCCN)C(=O)N[C@@H](CC1CCCCC1)C(=O)N[C@@H](CCC(N)=O)C(=O)N[C@@H](CCCCN)C(=O)N[C@@H](CC1CCCCC1)C(=O)N[C@@H](Cc1c[nH]cn1)C(=O)N[C@@H](CC(N)=O)C(=O)N[C@@H](Cc1ccccc1)C(N)=O)C(C)C [[Cha^24,28,31, Lys^30]hPTH(1-34)NH2] (H-SVSEIQLMHNLGKHLNSMERVEW[Cha]RKK[Cha]QK[Cha]HNF-NH2)",500
2,CC[C@H](C)[C@H](NC(=O)[C@H](CCC(=O)O)NC(=O)[C@H](CO)NC(=O)[C@@H](NC(=O)[C@@H](N)CO)C(C)C)C(=O)N[C@@H](CCC(N)=O)C(=O)N[C@@H](CC(C)C)C(=O)N[C@@H](CCSC)C(=O)N[C@@H](Cc1c[nH]cn1)C(=O)N[C@@H](CC(N)=O)C(=O)N[C@@H](CC(C)C)C(=O)NCC(=O)N[C@@H](CCCCN)C(=O)N[C@@H](Cc1c[nH]cn1)C(=O)N[C@@H](CC(C)C)C(=O)N[C@@H](CC(N)=O)C(=O)N[C@@H](CO)C(=O)N[C@@H](CCSC)C(=O)NC(C)(C)C(=O)N[C@@H](CCCNC(=N)N)C(=O)N[C@H](C(=O)N[C@@H](CCC(=O)O)C(=O)N[C@@H](Cc1c[nH]c2ccccc12)C(=O)N[C@@H](CC(C)C)C(=O)N[C@@H](CCCNC(=N)N)C(=O)N[C@@H](CCCCN)C(=O)N[C@@H](CCCCN)C(=O)N[C@@H](CC(C)C)C(=O)N[C@@H](CCC(N)=O)C(=O)N[C@@H](CC(=O)O)C(=O)N[C@H](C(=O)N[C@@H](Cc1c[nH]cn1)C(=O)N[C@@H](CC(N)=O)C(=O)N[C@@H](Cc1ccccc1)C(N)=O)C(C)C)C(C)C [[Aib^19]hPTH(1-34)NH2] (H-SVSEIQLMHNLGKHLNSM[Aib]RVEWLRKKLQDVHNF-NH2),5
3,CC[C@H](C)[C@H](NC(=O)[C@H](CCC(=O)O)NC(=O)[C@H](CO)NC(=O)[C@@H](NC(=O)[C@@H](N)CO)C(C)C)C(=O)N[C@@H](CCC(N)=O)C(=O)N[C@@H](CC(C)C)C(=O)N[C@@H](CCSC)C(=O)N[C@@H](Cc1c[nH]cn1)C(=O)N[C@@H](CC(N)=O)C(=O)N[C@@H](CC(C)C)C(=O)NCC(=O)N[C@@H](CCCCN)C(=O)N[C@@H](Cc1c[nH]cn1)C(=O)N[C@@H](CC(C)C)C(=O)N[C@@H](CC(N)=O)C(=O)N[C@@H](CO)C(=O)N[C@@H](CCSC)C(=O)N[C@@H](CCC(=O)O)C(=O)N[C@@H](CCCNC(=N)N)C(=O)N[C@H](C(=O)N[C@@H](CCC(=O)O)C(=O)N[C@@H](CC1CCCCC1)C(=O)N[C@@H](CC(C)C)C(=O)N[C@@H](CCCNC(=N)N)C(=O)N[C@@H](CCCCN)C(=O)N[C@@H](CCCCN)C(=O)N[C@@H](CC(C)C)C(=O)N[C@@H](CCC(N)=O)C(=O)N[C@@H](CC(=O)O)C(=O)N[C@H](C(=O)N[C@@H](Cc1c[nH]cn1)C(=O)N[C@@H](CC(N)=O)C(=O)N[C@@H](Cc1ccccc1)C(N)=O)C(C)C)C(C)C [[Cha^23]hPTH(1-34)NH2] (H-SVSEIQLMHNLGKHLNSMERVE[Cha]LRKKLQDVHNF-NH2),200

# Other lines, results leading:
row,Kd [nM],Structure (SMILES)
1,4,"CC[C@H](C)[C@H](NC(=O)[C@H](CCC(=O)O)NC(=O)[C@H](CO)NC(=O)[C@@H](NC(=O)[C@@H](N)CO)C(C)C)C(=O)N[C@@H](CCC(N)=O)C(=O)N[C@@H](CC1CCCCC1)C(=O)N[C@@H](CCSC)C(=O)N[C@@H](Cc1c[nH]cn1)C(=O)N[C@@H](CC(N)=O)C(=O)N[C@@H](CC1CCCCC1)C(=O)NCC(=O)N[C@@H](CCCCN)C(=O)N[C@@H](Cc1c[nH]cn1)C(=O)N[C@@H](CC(C)C)C(=O)N[C@@H](CC(N)=O)C(=O)N[C@@H](CO)C(=O)N[C@@H](CCSC)C(=O)NC(C)(C)C(=O)N[C@@H](CCCNC(=N)N)C(=O)N[C@H](C(=O)N[C@@H](CCC(=O)O)C(=O)N[C@@H](Cc1c[nH]c2ccccc12)C(=O)N[C@@H](CC(C)C)C(=O)N[C@@H](CCCNC(=N)N)C(=O)N[C@@H](CCCCN)C(=O)N[C@@H](CCCCN)C(=O)N[C@@H](CC(C)C)C(=O)N[C@@H](CCC(N)=O)C(=O)N[C@@H](CCCCN)C(=O)N[C@H](C(=O)N[C@@H](Cc1c[nH]cn1)C(=O)N[C@@H](CC(N)=O)C(=O)N[C@@H](Cc1ccccc1)C(N)=O)C(C)C)C(C)C [[Cha^7,11, Aib^19, Lys^30]hPTH(1-34)NH2] (H-SVSEIQ[Cha]MHN[Cha]GKHLNSM[Aib]RVEWLRKKLQKVHNF-NH2)"
2,4,CC[C@H](C)[C@H](NC(=O)[C@H](CCC(=O)O)NC(=O)[C@H](CO)NC(=O)[C@@H](NC(=O)[C@@H](N)CO)C(C)C)C(=O)N[C@@H](CCC(N)=O)C(=O)N[C@@H](CC(C)C)C(=O)N[C@@H](CCSC)C(=O)N[C@@H](Cc1c[nH]cn1)C(=O)N[C@@H](CC(N)=O)C(=O)N[C@@H](CC(C)C)C(=O)NCC(=O)N[C@@H](CCCCN)C(=O)N[C@@H](Cc1c[nH]cn1)C(=O)N[C@@H](CC(C)C)C(=O)NC(C)(C)C(=O)N[C@@H](CO)C(=O)N[C@@H](CCSC)C(=O)N[C@@H](CCC(=O)O)C(=O)N[C@@H](CCCNC(=N)N)C(=O)N[C@H](C(=O)N[C@@H](CCC(=O)O)C(=O)N[C@@H](Cc1c[nH]c2ccccc12)C(=O)N[C@@H](CC(C)C)C(=O)N[C@@H](CCCNC(=N)N)C(=O)N[C@@H](CCCCN)C(=O)N[C@@H](CCCCN)C(=O)N[C@@H](CC(C)C)C(=O)N[C@@H](CCC(N)=O)C(=O)N[C@@H](CC(=O)O)C(=O)N[C@H](C(=O)N[C@@H](Cc1c[nH]cn1)C(=O)N[C@@H](CC(N)=O)C(=O)N[C@@H](Cc1ccccc1)C(N)=O)C(C)C)C(C)C [[Aib^16]hPTH(1-34)NH2] (H-SVSEIQLMHNLGKHL[Aib]SMERVEWLRKKLQDVHNF-NH2)

# Same assay, conditions: Table II, 2 hrs at room temperature, read-out: Kd (half maximal inhibition of binding of mono-125I-[Nle8,18, Tyr34(3-125I)]bPTH(1-34)NH2)
row,Kd [nM],Structure (SMILES)
1,70,"CC[C@H](C)[C@H](NC(=O)[C@H](CO)NC(=O)[C@H](CCCCN)NC(=O)CNC(=O)[C@H](CCCCN)NC(=O)[C@H](CC(=O)O)NC(=O)[C@H](Cc1c[nH]cn1)NC(=O)[C@H](CC(C)C)NC(=O)[C@H](CC(C)C)NC(=O)[C@H](CCC(N)=O)NC(=O)[C@H](Cc1c[nH]cn1)NC(=O)[C@H](CCC(=O)O)NC(=O)[C@H](CO)NC(=O)[C@@H](NC(=O)[C@H](C)N)C(C)C)C(=O)N[C@@H](CCC(N)=O)C(=O)N[C@@H](CC(=O)O)C(=O)N[C@@H](CC(C)C)C(=O)N[C@@H](CCCNC(=N)N)C(=O)N[C@@H](CCCNC(=N)N)C(=O)N[C@@H](CCCNC(=N)N)C(=O)N[C@@H](CCC(=O)O)C(=O)NC1(C(=O)N[C@@H](CC(C)C)C(=O)N[C@@H](CCC(=O)O)C(=O)N[C@@H](CCCCN)C(=O)N[C@@H](CC(C)C)C(=O)N[C@@H](CC(C)C)C(=O)NC(C)(C)C(=O)N[C@@H](CCCCN)C(=O)N[C@@H](CC(C)C)C(=O)N[C@@H](Cc2c[nH]cn2)C(=O)N[C@H](C(=O)N[C@@H](C)C(N)=O)[C@@H](C)O)CCCCC1 [[Glu^22,25, Ahc^23, Lys^26,30, Leu^28,31, Aib^29]hPTHrP(1-34)NH2] (H-AVSEHQLLHDKGKSIQDLRRRE[Ac6c]LEKLL[Aib]KLHTA-NH2; N-terminus assumed)"
